# Experiments:
# Format in all cases: cell-based
# [1] = test system: pRb2/p130-multimolecular complex on ER-α promoter in MDA-MB-231 cells; assay: XChIP analysis of recruitment of pRb2/p130-multimolecular complex to the ER-α promoter in 5-Aza-2dC treated MDA-MB-231 cells; settings: 72 hours treatment, complex contained pRb2/p130, E2F4, SUV39H1, p300, HDAC1
# Experimental: Soluble chromatin was immunoprecipitated with specific antibodies recognizing pRb2/p130, E2F4, HDAC1, SUV39H1, DNMT1, and p300. The presence of ER-α promoter sequences in the immunoprecipitates was tested by PCR using specific primers spanning ER-α promoter.
# Chromatin immunoprecipitations were performed using a modified procedure of previously published methods (see Orlando et al., 1997, Methods and 11, 205; Keller et al., 2002, J. Biol. Chem., 277, 31430, the entire disclosures of which are herein incorporated by reference), in combination with Western blot and PCR techniques. Approximately 1×10^6 MCF-7 and MDA-MB-231 cells were cross-linked by adding formaldehyde (1% final concentration) directly to the culture medium, and incubating the cells for 8 minutes at 37° C.
# After removal of the medium, cells were washed three times on plates with cold phosphate-buffered saline (PBS) containing protease inhibitors (1 mM phenylmethyl-sulfonyl fluoride, 1 μg/ml aprotinin and 1 μg/ml pepstatin A), scraped, and washed again twice in cold PBS. […]
# The recruitment of pRb2/p130-multimolecular complexes to ER-α promoter was analyzed in MCF-7 and MDA-MB-231 cells by XChIP. […]
# [2] = test system: pRb2/p130-multimolecular complex on ER-α promoter in MCF-7 cells; assay: XChIP analysis of recruitment of pRb2/p130-multimolecular complex to the ER-α promoter in 5-Aza-2dC treated MCF-7 cells; settings: 72 hours treatment
# Experimental: After removal of the medium, cells were washed three times on plates with cold phosphate-buffered saline (PBS) containing protease inhibitors (1 mM phenylmethyl-sulfonyl fluoride, 1 μg/ml aprotinin and 1 μg/ml pepstatin A), scraped, and washed again twice in cold PBS. The cell pellet was resuspended in SDS lysis buffer (1% SDS, 10 mM EDTA, 50 mM Tris-HCl, pH 8.1), incubated for 10 minutes on ice, sonicated to shear DNA to lengths between 300 and 500 bp, and centrifuged for 10 minutes at 13,000 rpm at 4° C. Sonicated cell supernatant was diluted in ChIP dilution buffer (0.01% SDS, 1.1% Triton X-100, 1.2 mM EDTA, 16.7 mM Tris-HCL, pH 8.1, 167 mM NaCL), and pre-cleared twice with salmon sperm DNA/protein A agarose at 4° C. for 2 hours. The agarose was pelleted and the supernatant fraction was collected and incubated overnight at 4° C. with the immunoprecipitating antibody.
# As negative controls, a “no-antibody” immunoprecipitation was performed by incubating the supernatant fraction with salmon sperm DNA/protein A agarose, and immunoprecipitating the mixture with an irrelevant antibody. […]
# [3] = test system: ER-α in MDA-MB-231 cells; assay: Effect of 5-Aza-2dC on ER-α RNA (RT-PCR) and protein (Western blot) expression in MDA-MB-231 cells
# Experimental: The expression of β-actin protein in each sample was assessed to normalize protein loading.
# The breast carcinoma cell lines, MCF-7 (estrogen receptor-positive), MDA-MB-231 (estrogen receptor-negative) and the normal mammary epithelial cell line MCF-12A, were obtained from ATCC (Rockville, Md.) and were cultured according to the manufacturer's protocols. The breast primary tumors were selected on the basis of estrogen receptor status.
# Control cells were left untreated. Total RNA was isolated from the treated and control cells, and ER-α RNA was detected by reverse-transcription polymerase chain reaction (RT-PCR). P-actin RNA expression was also determined by RT-PCR in total RNA isolated from treatment and control cells to normalize RNA loading. […] The expression of β-actin protein was assessed to normalize protein loading.
smiles,measurement,setting,value
"Nc1ncn([C@H]2C[C@H](O)[C@@H](CO)O2)c(=O)n1 [5-Aza-2dC, 5-Aza-2′-deoxycytidine]",composition of pRb2/p130-multimolecular complex recruited to ER-α promoter,[1],did not contain DNMT1
same,composition of pRb2/p130-multimolecular complex recruited onto ER-α promoter,[2],did not influence the composition
same,time of maximal ER-α RNA expression,[3]; MDA-MB-231 cells treated with 5-Aza-2dC,72 h
same,expression of ER-α RNA,"[3]; MDA-MB-231 cells, 2.5 μM, 24-96 hours, RT-PCR, especially evident at 48-96 h",significantly enhanced
same,expression of ER-α protein,"[3]; MDA-MB-231 cells, 2.5 μM, 24-96 hours, Western blot, especially evident at 48-96 h",significantly enhanced
